Data published in patent publication US20100210539A1, “USE OF PEPTIDE LL-37 AS A THERAPEUTIC AGENT” (priority 2007, published 2010).

Tested on: drug-resistant Mycobacterium tuberculosis
Settings: peptide 10 micrograms per ml, seven days

Structure (SMILES): CC[C@H](C)[C@H](NC(=O)[C@H](CCCCN)NC(=O)[C@H](CCC(=O)O)NC(=O)[C@H](CCCCN)NC(=O)[C@H](CO)NC(=O)[C@H](CCCCN)NC(=O)[C@H](CCCNC(=N)N)NC(=O)[C@H](Cc1ccccc1)NC(=O)[C@H](Cc1ccccc1)NC(=O)[C@H](CC(=O)O)NC(=O)CNC(=O)[C@H](CC(C)C)NC(=O)[C@@H](N)CC(C)C)C(=O)NCC(=O)N[C@@H](CCCCN)C(=O)N[C@@H](CCC(=O)O)C(=O)N[C@@H](Cc1ccccc1)C(=O)N[C@@H](CCCCN)C(=O)N[C@@H](CCCNC(=N)N)C(=O)N[C@H](C(=O)N[C@H](C(=O)N[C@@H](CCC(N)=O)C(=O)N[C@@H](CCCNC(=N)N)C(=O)N[C@H](C(=O)N[C@@H](CCCCN)C(=O)N[C@@H](CC(=O)O)C(=O)N[C@@H](Cc1ccccc1)C(=O)N[C@@H](CC(C)C)C(=O)N[C@@H](CCCNC(=N)N)C(=O)N[C@@H](CC(N)=O)C(=O)N[C@@H](CC(C)C)C(=O)N[C@H](C(=O)N1CCC[C@H]1C(=O)N[C@@H](CCCNC(=N)N)C(=O)N[C@H](C(=O)N[C@@H](CCC(=O)O)C(=O)N[C@@H](CO)C(N)=O)[C@@H](C)O)C(C)C)[C@@H](C)CC)C(C)C)[C@@H](C)CC [LL-37]
- % inhibition: 0.0%
